Test results as given in ChEMBL document CHEMBL1149505 (Bioorg Med Chem Lett, 2006).

Tests used:
[1] = molecular target: Neuronal acetylcholine receptor; alpha4/beta2 (Rattus norvegicus, UniProt P09483+P12390); assay: Inhibition of [3H]NIC binding to alpha-4-beta-2 nAChR in rat brain membrane; format: cell membranes
[2] = molecular target: Neuronal acetylcholine receptor subunit alpha-7 (Rattus norvegicus, UniProt Q05941); assay: Inhibition of [3H]MLA binding to alpha-7 nAChR in rat brain membrane; format: cell membranes
[3] = molecular target: Sodium-dependent dopamine transporter (Rattus norvegicus, UniProt P23977); assay: Inhibition of [3H]DA uptake at DAT in rat striatal synaptosomes; format: subcellular, Brain
[4] = molecular target: Sodium-dependent serotonin transporter (Rattus norvegicus, UniProt P31652); assay: Inhibition of [3H]5-HT uptake at SERT in rat hippocampal synaptosomes; format: subcellular, Hippocampus
[5] = molecular target: Synaptic vesicular amine transporter (Rattus norvegicus, UniProt Q01827); assay: Inhibition of [3H]DTBZ binding to VMAT2 in rat synaptic vesicle membrane; format: cell membranes
Chain of Synaptic vesicular amine transporter (Q01827 whole entry): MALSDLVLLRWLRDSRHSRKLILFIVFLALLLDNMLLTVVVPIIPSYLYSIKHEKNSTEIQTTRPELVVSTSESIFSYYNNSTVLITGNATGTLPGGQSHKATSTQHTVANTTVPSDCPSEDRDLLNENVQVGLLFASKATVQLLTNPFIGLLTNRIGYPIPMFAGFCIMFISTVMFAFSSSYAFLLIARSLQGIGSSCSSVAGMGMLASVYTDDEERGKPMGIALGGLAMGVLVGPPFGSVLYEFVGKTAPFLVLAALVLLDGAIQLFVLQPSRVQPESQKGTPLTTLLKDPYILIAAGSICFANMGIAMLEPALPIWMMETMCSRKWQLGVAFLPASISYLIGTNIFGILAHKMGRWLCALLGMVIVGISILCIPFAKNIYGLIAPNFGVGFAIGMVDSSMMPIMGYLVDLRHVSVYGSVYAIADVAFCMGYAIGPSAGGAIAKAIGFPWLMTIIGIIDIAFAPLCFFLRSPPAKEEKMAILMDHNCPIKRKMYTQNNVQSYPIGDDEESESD

Chain of Sodium-dependent dopamine transporter (P23977 whole entry): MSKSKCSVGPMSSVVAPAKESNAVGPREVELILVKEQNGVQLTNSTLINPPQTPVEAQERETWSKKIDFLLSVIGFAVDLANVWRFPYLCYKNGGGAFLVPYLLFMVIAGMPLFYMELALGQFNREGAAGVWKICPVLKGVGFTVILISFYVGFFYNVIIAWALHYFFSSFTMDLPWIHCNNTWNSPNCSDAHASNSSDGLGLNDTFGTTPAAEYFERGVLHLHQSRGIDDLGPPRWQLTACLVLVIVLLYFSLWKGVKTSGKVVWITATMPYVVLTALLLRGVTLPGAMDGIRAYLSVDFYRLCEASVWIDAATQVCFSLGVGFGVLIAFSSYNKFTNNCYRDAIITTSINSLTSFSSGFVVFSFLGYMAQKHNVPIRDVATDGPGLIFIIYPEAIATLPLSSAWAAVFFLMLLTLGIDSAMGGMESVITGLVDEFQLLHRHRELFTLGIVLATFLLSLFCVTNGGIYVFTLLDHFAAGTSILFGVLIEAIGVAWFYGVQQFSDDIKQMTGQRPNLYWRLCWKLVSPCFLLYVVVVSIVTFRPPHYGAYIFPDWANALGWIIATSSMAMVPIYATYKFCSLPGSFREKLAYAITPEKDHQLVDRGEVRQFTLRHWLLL
Chain of Neuronal acetylcholine receptor subunit alpha-7 (Q05941 whole entry): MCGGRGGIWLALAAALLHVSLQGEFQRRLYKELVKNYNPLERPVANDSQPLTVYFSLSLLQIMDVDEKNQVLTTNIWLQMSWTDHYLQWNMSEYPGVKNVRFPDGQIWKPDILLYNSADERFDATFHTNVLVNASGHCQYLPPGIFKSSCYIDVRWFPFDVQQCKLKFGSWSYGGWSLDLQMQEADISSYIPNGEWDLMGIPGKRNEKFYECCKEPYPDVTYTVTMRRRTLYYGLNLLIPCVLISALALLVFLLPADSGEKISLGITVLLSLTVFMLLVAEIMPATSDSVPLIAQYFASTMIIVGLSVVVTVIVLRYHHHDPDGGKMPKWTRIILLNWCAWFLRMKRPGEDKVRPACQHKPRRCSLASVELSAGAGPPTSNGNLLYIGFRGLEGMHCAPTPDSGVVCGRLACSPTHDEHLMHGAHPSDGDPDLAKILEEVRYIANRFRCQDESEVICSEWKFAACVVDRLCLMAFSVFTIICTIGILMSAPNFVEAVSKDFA
Chain of Sodium-dependent serotonin transporter (P31652 whole entry): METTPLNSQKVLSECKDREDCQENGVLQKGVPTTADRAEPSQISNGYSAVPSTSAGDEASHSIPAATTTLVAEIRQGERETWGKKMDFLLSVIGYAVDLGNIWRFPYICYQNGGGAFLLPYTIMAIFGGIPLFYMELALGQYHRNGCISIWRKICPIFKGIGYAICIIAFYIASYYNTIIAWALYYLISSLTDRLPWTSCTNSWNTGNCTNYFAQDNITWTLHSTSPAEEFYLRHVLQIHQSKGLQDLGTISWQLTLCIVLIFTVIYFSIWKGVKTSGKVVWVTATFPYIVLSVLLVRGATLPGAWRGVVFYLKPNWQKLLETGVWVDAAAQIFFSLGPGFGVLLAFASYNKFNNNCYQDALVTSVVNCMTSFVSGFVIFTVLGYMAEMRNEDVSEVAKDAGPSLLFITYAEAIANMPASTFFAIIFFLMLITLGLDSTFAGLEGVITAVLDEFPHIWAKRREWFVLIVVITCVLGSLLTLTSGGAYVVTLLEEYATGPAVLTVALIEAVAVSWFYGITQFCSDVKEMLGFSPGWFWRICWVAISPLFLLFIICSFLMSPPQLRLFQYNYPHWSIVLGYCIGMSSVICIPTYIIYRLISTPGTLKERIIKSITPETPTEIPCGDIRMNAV
Chain of Neuronal acetylcholine receptor; alpha4/beta2 (P09483 whole entry): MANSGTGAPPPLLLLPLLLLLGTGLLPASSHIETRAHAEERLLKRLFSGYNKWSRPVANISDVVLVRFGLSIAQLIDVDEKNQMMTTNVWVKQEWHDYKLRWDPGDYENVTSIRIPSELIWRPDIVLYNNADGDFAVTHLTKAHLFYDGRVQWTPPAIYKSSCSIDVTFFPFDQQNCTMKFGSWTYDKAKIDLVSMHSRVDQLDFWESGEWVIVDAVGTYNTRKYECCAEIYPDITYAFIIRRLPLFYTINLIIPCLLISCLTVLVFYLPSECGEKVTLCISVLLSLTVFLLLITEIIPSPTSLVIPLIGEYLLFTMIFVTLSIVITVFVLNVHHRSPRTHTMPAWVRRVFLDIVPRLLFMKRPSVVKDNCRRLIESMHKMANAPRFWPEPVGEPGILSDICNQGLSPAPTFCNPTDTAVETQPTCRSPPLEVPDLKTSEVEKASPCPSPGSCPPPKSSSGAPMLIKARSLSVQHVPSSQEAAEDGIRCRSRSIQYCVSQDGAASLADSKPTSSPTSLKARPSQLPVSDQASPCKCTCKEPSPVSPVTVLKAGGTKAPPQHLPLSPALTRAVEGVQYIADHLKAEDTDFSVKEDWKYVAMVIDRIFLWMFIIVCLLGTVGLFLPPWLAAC
Chain of Neuronal acetylcholine receptor; alpha4/beta2 (P12390 whole entry): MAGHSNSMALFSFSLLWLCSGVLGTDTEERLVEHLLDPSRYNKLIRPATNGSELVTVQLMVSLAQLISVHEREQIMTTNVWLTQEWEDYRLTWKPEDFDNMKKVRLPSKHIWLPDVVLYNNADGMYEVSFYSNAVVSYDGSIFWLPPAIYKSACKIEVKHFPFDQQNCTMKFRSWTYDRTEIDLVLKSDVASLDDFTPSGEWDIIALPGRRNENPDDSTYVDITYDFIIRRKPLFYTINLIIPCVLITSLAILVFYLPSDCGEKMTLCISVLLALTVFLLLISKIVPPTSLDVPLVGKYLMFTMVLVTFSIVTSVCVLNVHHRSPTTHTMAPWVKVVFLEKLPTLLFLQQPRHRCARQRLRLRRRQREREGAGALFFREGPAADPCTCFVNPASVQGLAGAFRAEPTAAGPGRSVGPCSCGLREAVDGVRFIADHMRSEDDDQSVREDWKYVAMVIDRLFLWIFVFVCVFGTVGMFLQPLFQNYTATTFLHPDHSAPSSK

Compound | IC50 [1] | IC50 [2] | Ki [3] | Ki [4] | Ki [1] | Ki [2] | Ki [5]
CN1[C@@H](C[C@H](O)c2ccccc2)CCC[C@H]1/C=C/c1ccccc1 | > 100 µM | > 100 µM | 0.96 µM | 3.75 µM | – | – | –
CN1[C@H](C[C@@H](O)c2ccccc2)CCC[C@@H]1/C=C/c1ccccc1 | > 100 µM | > 100 µM | 0.29 µM | 7.5 µM | – | – | –
CN1[C@@H](CC(=O)c2ccccc2)CCC[C@H]1C[C@H](O)c1ccccc1 [LOBELINE] | – | – | 28.2 µM | 46.8 µM | – | – | –
CN1[C@@H](CCc2ccccc2)CCC[C@H]1C[C@H](O)c1ccccc1 | – | – | 1.39 µM | 4.27 µM | 1.77 µM | 39.3 µM | 3.09 µM
CN1[C@@H](C[C@@H](O)c2ccccc2)CCC[C@H]1/C=C/c1ccccc1 | – | – | – | 0.044 µM | 4.19 µM | 1.7 µM | –
CCC1(O)CC2c3cc(OC)c(OC)cc3CCN2CC1CC(C)C (configuration not stated) | – | – | – | – | – | – | 0.028 µM
CN1[C@H](C[C@H](O)c2ccccc2)CCC[C@@H]1/C=C/c1ccccc1 | – | > 100 µM | 0.11 µM | 19 µM | – | – | –
CN1[C@@H](CCc2ccccc2)CCC[C@H]1C[C@@H](O)c1ccccc1 | > 100 µM | > 100 µM | 0.57 µM | 7.3 µM | – | – | 6.6 µM
CN1[C@H](CCc2ccccc2)CCC[C@@H]1C[C@@H](O)c1ccccc1 [8R-hydroxylobelane] | – | – | 1.88 µM | 0.15 µM | 2.36 µM | 1.21 µM | 1.98 µM
CN1[C@H](CCc2ccccc2)CCC[C@@H]1C[C@H](O)c1ccccc1 | – | > 100 µM | 1.26 µM | 2.22 µM | 33.6 µM | – | 3.01 µM
